The Ki is a dissociation constant, usually derived from enzyme kinetics or from competition with a known ligand.

The structures appear in SMILES notation.

The target in this test is human PDE2A1 (Homo sapiens (Human), UniProt O00408). Kind of test: PDE selectivity IMAP FP assay, human PDE2A1. The format is biochemical. The settings on record: Human PDE2; Lab B; read-out: Human PDE2 Ki (nM) Lab B. The protocol: Selectivity for PDE2, as compared to other PDE families, was assessed using the IMAP® technology. Human PDE10A2 enzyme was prepared from cytosolic fractions of transiently transfected HEK cells.
Chain of human PDE2A1 (O00408 other isoform, or with tags, fused parts or gaps): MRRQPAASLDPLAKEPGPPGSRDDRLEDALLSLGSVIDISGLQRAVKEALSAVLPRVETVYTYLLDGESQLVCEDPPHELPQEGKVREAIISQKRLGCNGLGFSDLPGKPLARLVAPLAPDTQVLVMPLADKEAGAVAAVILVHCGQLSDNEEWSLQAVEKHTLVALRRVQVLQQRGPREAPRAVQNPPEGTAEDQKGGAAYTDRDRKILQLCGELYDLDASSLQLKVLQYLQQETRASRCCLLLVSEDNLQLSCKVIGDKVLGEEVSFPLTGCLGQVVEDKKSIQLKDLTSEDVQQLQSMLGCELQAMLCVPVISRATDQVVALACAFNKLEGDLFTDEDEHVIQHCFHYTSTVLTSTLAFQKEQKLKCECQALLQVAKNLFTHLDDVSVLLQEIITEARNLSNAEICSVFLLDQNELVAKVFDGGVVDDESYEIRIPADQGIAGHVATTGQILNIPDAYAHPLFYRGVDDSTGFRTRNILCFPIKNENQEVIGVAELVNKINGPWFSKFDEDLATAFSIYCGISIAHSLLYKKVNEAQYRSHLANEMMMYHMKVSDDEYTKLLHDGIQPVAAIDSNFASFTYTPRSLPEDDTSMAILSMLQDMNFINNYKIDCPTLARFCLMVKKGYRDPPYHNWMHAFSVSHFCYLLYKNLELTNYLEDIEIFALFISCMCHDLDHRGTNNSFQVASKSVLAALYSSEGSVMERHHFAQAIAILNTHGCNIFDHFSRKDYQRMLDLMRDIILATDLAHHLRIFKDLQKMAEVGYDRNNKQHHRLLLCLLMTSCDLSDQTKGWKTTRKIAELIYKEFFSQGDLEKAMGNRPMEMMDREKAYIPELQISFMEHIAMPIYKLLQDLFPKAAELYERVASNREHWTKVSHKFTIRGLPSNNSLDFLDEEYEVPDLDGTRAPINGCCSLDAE
A Labcyte POD 810 (Labcyte, Sunnyvale, Calif.) was used to dispense 200 nL from each well of the titration plate to make eleven copies of the assay plate for each titration, one copy for each PDE enzyme. A solution of each enzyme (dilution from aliquots, sufficient to produce 20% substrate conversion) and a separate solution of FAM-labeled cAMP or FAM-labeled cGMP from Molecular Devices (Sunnyvale, Calif., product # R7506 or cGMP#R7508), at a final concentration of 50 nM were made in the assay buffer (10 mM Tris HCl, pH 7.2, 10 mM MgCl2, 0.05% NaN3 0.01% Tween-20, and 1 mM DTT). Note that the substrate for PDE2 is 50 nM FAM cAMP containing 1000 nM of cGMP. The enzyme and the substrate were then added to the assay plates in two consecutive additions of 10 μL and then shaken to mix. The reaction was allowed to proceed at room temperature for 60 minutes. A binding solution was then made from the kit components, comprised of 80% Solution A, 20% Solution B and binding reagent at a volume of 1/600 the total binding solution. The enzymatic reaction was stopped by addition of 60 μL of the binding solution to each well of the assay plate. […] The plates were incubated at room temperature for one hour, then the parallel and perpendicular fluorescence was measured using a Tecan Genios Pro plate reader (Tecan, Switzerland). […] The intrinsic PDE2 inhibitory activity of a compound which may be used in accordance with the present invention may be determined by these assays. […]
The PDE2 Ki is a measure of the ability of the test compound to inhibit the action of the PDE2 enzyme.
Take `CN(C)c1nc2c(c(CO)nn2C(c2ccc(C(F)F)c(F)c2)C2CC2)c(=O)[nH]1` (single isomer, unassigned) [Example 153, (S)- or (R)-1-(Cyclopropyl(4-(difluoromethyl)-3-fluorophenyl)methyl)-6-(dimethylamino)-3-(hydroxymethyl)-1H-pyrazolo[3,4-d]pyrimidin-4(5H)-one]: the Ki was determined as 3 nM.

With `CCC(c1ccc(C(F)(F)F)cc1)n1nc(CF)c2c(=O)[nH]c(N(C)C)nc21` (single isomer, unassigned) [Example 172, (R)- or (S)-6-(Dimethylamino)-3-(fluoromethyl)-1-(1-(4-(trifluoromethyl)phenyl)propyl)-1H-pyrazolo[3,4-d]pyrimidin-4(5H)-one], the Ki amounted to 2.2 nM.

`CC(c1ccc(CC(F)(F)F)cc1)n1nc(CF)c2c(=O)[nH]c(N(C)C)nc21` (single isomer, unassigned) [Example 174, (R)- or (S)-6-(Dimethylamino)-3-(fluoromethyl)-1-(1-(4-(2,2,2-trifluoroethyl)phenyl)ethyl)-1H-pyrazolo[3,4-d]pyrimidin-4(5H)-one]: the inhibitory constant (Ki) was 2.7 nM.

As for `CC(c1ccc(CC(F)(F)F)cc1)n1nc(CF)c2c(=O)[nH]c(N(C)C)nc21` (single isomer, unassigned) [Example 175, (S)- or (R)-6-(Dimethylamino)-3-(fluoromethyl)-1-(1-(4-(2,2,2-trifluoroethyl)phenyl)ethyl)-1H-pyrazolo[3,4-d]pyrimidin-4(5H)-one], the Ki stood at 0.39 nM.

As to `CN(C)c1nc2c(c(CF)nn2C(c2ccc(C(F)(F)F)cc2)C2CC2)c(=O)[nH]1` (single isomer, unassigned) [Example 178, (R)- or (S)-1-(Cyclopropyl(4-(trifluoromethyl)phenyl)methyl)-6-(dimethylamino)-3-(fluoromethyl)-1H-pyrazolo[3,4-d]pyrimidin-4(5H)-one], the Ki turned out to be 1.1 nM.

Turning to `CN(C)c1nc2c(c(CF)nn2C(c2ccc(C(F)(F)F)c(F)c2)C2CC2)c(=O)[nH]1` (single isomer, unassigned) [Example 180, (R)- or (S)-1-(Cyclopropyl(3-fluoro-4-(trifluoromethyl)phenyl)methyl)-6-(dimethylamino)-3-(fluoromethyl)-1H-pyrazolo[3,4-d]pyrimidin-4(5H)-one], the inhibitory constant (Ki) was determined as 1.2 nM.

Turning to `CC(c1ccc(C(F)(F)F)cc1F)n1nc(CF)c2c(=O)[nH]c(N(C)C)nc21` (single isomer, unassigned) [Example 187, (S)- or (R)-6-(Dimethylamino)-1-(1-(2-fluoro-4-(trifluoromethyl)phenyl)ethyl)-3-(fluoromethyl)-1H-pyrazolo[3,4-d]pyrimidin-4(5H)-one], the inhibitory constant (Ki) is 19 nM.

For the compound `CC(c1ccc(C(F)F)cc1)n1nc(CF)c2c(=O)[nH]c(N(C)C)nc21` (single isomer, unassigned) [Example 190, (R)- or (S)-1-(1-(4-(Difluoromethyl)phenyl)ethyl)-6-(dimethylamino)-3-(fluoromethyl)-1H-pyrazolo[3,4-d]pyrimidin-4(5H)-one], the Ki turned out to be 27 nM.

Take `CC(c1ccc(C(C)(F)F)cc1)n1nc(CF)c2c(=O)[nH]c(N(C)C)nc21` (single isomer, unassigned) [Example 194, (R)- or (S)-1-(1-(4-(1,1-Difluoroethyl)phenyl)ethyl)-6-(dimethylamino)-3-(fluoromethyl)-1H-pyrazolo[3,4-d]pyrimidin-4(5H)-one]: the Ki came out at 6.1 nM.

For `CC(c1ccc(C(F)F)c(F)c1)n1nc(CF)c2c(=O)[nH]c(N(C)C)nc21` (single isomer, unassigned) [Example 197, (S)- or (R)-1-(1-(4-(Difiuoromethyl)-3-fluorophenyl)ethyl)-6-(dimethylamino)-3-(fluoromethyl)-1H-pyrazolo[3,4-d]pyrimidin-4(5H)-one], the Ki came out at 18 nM.

Turning to `CCC(c1ccc(C(F)(F)F)cc1F)n1nc(CF)c2c(=O)[nH]c(N(C)C)nc21` (single isomer, unassigned) [Example 199, (S)- or (R)-6-(Dimethylamino)-1-(1-(2-fluoro-4-(trifluoromethyl)phenyl)propyl)-3-(fluoromethyl)-1H-pyrazolo[3,4-d]pyrimidin-4(5H)-one], the inhibition constant Ki was 1.1 nM.

Take `CC(C)C(c1ccc(C(F)(F)F)cc1F)n1nc(CF)c2c(=O)[nH]c(N(C)C)nc21` (single isomer, unassigned) [Example 201, (S)- or (R)-6-(Dimethylamino)-1-(1-(2-fluoro-4-(trifluoromethyl)phenyl)-2-methylpropyl)-3-(fluoromethyl)-1H-pyrazolo[3,4-d]pyrimidin-4(5H)-one]: the Ki was found to be 1.2 nM.

As to `CCC(c1ccc(C(C)(F)F)cc1)n1nc(CF)c2c(=O)[nH]c(N(C)C)nc21` (single isomer, unassigned) [Example 204, (R)- or (S)-1-(1-(4-(1,1-Difluoroethyl)phenyl)propyl)-6-(dimethylamino)-3-(fluoromethyl)-1H-pyrazolo[3,4-d]pyrimidin-4(5H)-one], the Ki was determined as 1.4 nM.

For `CC(c1ccc(C(C)(F)F)cc1F)n1nc(CF)c2c(=O)[nH]c(N(C)C)nc21` (single isomer, unassigned) [Example 208, (R)- or (S)-1-(1-(4-(1,1-Difluoroethyl)-2-fluorophenyl)ethyl)-6-(dimethylamino)-3-(fluoromethyl)-1H-pyrazolo[3,4-d]pyrimidin-4(5H)-one], the Ki was 20 nM.

With `CC(c1ccc(C(C)(F)F)c(F)c1)n1nc(CF)c2c(=O)[nH]c(N(C)C)nc21` (single isomer, unassigned) [Example 210, (R)- or (S)-1-(1-(4-(1,1-Difluoroethyl)-3-fluorophenyl)ethyl)-6-(dimethylamino)-3-(fluoromethyl)-1H-pyrazolo[3,4-d]pyrimidin-4(5H)-one], the Ki stood at 3.3 nM.

Regarding `CC(c1ccc(C(C)(F)F)c(F)c1)n1nc(CF)c2c(=O)[nH]c(N(C)C)nc21` (single isomer, unassigned) [Example 211, (S)- or (R)-1-(1-(4-(1,1-Difluoroethyl)-3-fluorophenyl)ethyl)-6-(dimethylamino)-3-(fluoromethyl)-1H-pyrazolo[3,4-d]pyrimidin-4(5H)-one], the Ki is 0.048 nM.

As to `CCC(c1ccc(C(C)(F)F)cc1F)n1nc(CF)c2c(=O)[nH]c(N(C)C)nc21` (single isomer, unassigned) [Example 215, (S)- or (R)-1-(1-(4-(1,1-Difluoroethyl)-2-fluorophenyl)propyl)-6-(dimethylamino)-3-(fluoromethyl)-1H-pyrazolo[3,4-d]pyrimidin-4(5H)-one], the Ki was 0.98 nM.

Consider `CCC(c1ccc(C(F)(F)F)c(F)c1)n1nc(CF)c2c(=O)[nH]c(N(C)C)nc21` (single isomer, unassigned) [Example 223, (S)- or (R)-6-(Dimethylamino)-1-(1-(3-fluoro-4-(trifluoromethyl)phenyl)propyl)-3-(fluoromethyl)-1H-pyrazolo[3,4-d]pyrimidin-4(5H)-one], for which the Ki was determined as 1.8 nM.

With `CC(C)(C)C(c1ccc(C(F)(F)F)c(F)c1)n1nc(CC(F)(F)F)c2c(=O)[nH]c(O)nc21` (single isomer, unassigned) [Example 246, (R)- or (S)-1-(1-(3-Fluoro-4-(trifluoromethyl)phenyl)-2,2-dimethylpropyl)-6-hydroxy-3-(2,2,2-trifluoroethyl)-1H-pyrazolo[3,4-d]pyrimidin-4(5H)-one], the Ki amounted to 408 nM.

Turning to `CC(C)(C)C(c1ccc(C(F)(F)F)c(F)c1)n1nc(CC(F)(F)F)c2c(=O)[nH]c(O)nc21` (single isomer, unassigned) [Example 247, (S)- or (R)-1-(1-(3-Fluoro-4-(trifluoromethyl)phenyl)-2,2-dimethylpropyl)-6-hydroxy-3-(2,2,2-trifluoroethyl)-1H-pyrazolo[3,4-d]pyrimidin-4(5H)-one], the inhibitory constant (Ki) was above 2960 nM.

Take `CC1(C(c2ccc(C(F)(F)F)c(F)c2)n2nc(CC(F)(F)F)c3c(=O)[nH]c(O)nc32)CC1` (single isomer, unassigned) [Example 248, (R)- or (S)-1-((3-Fluoro-4-(trifluoromethyl)phenyl)(1-methylcyclopropyl)methyl)-6-hydroxy-3-(2,2,2-trifluoroethyl)-1H-pyrazolo[3,4-d]pyrimidin-4(5H)-one]: the inhibition constant Ki is 47 nM.

`CC1(C(c2ccc(C(F)(F)F)c(F)c2)n2nc(CC(F)(F)F)c3c(=O)[nH]c(O)nc32)CC1` (single isomer, unassigned) [Example 249, (S)- or (R)-1-((3-Fluoro-4-(trifluoromethyl)phenyl)(1-methylcyclopropyl)methyl)-6-hydroxy-3-(2,2,2-trifluoroethyl)-1H-pyrazolo[3,4-d]pyrimidin-4(5H)-one]: the Ki is 841 nM.

For `O=c1[nH]c(O)nc2c1c(C(F)F)nn2C(CC(F)(F)F)c1ccc(C(F)(F)F)cc1` (single isomer, unassigned) [Example 271], the Ki came to 911 nM.

As to `O=c1[nH]c(O)nc2c1c(C(F)F)nn2C(CC(F)(F)F)c1ccc(C(F)(F)F)cc1` (single isomer, unassigned) [Example 272], the inhibition constant Ki stood at 43 nM.

For the origin of these results see US10174037B2, “Dihydropyrazolopyrimidinone compounds as PDE2 inhibitors” (Merck Sharp & Dohme Corp., priority 2015, dated 2019).
